Data set [1] concerns human kidney brush border membrane protein extracts. The data set can be described thus: Human kidney brush border membrane (KBBM) stability assay. It counts as in vitro ADME. The settings on record: hKBBM, 30 microM peptide, 37 degrees C, 5 hours; relative to positive control.
Procedure: Relative stability of representative peptides in a human kidney brush border membrane (KBBM) assay was performed as follows. Human kidney brush border membrane protein extracts are rich in various peptidases. […] In a separate vial, peptide stock solution (300 microM in 50% acetonitrile in water) was prepared and 70 microL of this solution was added to the above hKBBMP solution. The solution was gently mixed by manual shaking so that the final peptide concentration is 30 microM. Then 100 microL of this solution was aliquoted into six different tubes and into one tube 200 microL of enzyme stop solution (50% acetonitrile in water with 0.1% TFA) was added. This tube was used for the measurement of the initial peptide concentration at time t=0 minute while all other 5 tubes were incubated at 37 degrees C. using a water bath. At intervals of 1, 2, 3, 4 and 5 hour, each tube was taken out and quenched with 200 microL of stop solution. Finally, all six tubes were centrifuged at 1800×g for 10 min to remove any precipitated proteins. The supernatant (10 microL) was transferred into an HPLC auto sampler, and by using selected ion count method AUC was measured. Each sample was run in triplicates and average AUC was calculated for data analysis. Sample analysis was done on Agilent HPLC with mass detector with an acetonitrile with 0.1% TFA gradient. […]
Data set [2] in a line: Stability in human plasma. It counts as in vitro ADME. To be noted: 10 μg/ml in human plasma, 37 degrees C, 5 hours; normalized to a standard (100%).
The next data set deals with NIH/Swiss female mice. Kind of data set: OGTT DOA (oral glucose tolerance test for duration of action). In kind it is in vivo, mouse. To be noted: for % Glucose Lowering Compared to Vehicle: 25 nmol/kg IP at t=-1 day, glucose gavage 1.5 g/kg at t=0, blood glucose at 30 min, 24 hours post dose. How it is done: In vivo assays for activity and duration of action and pharmacokinetics can be done using known methods. For example, duration can be performed using an oral glucose tolerance test (OGTT) in which the drug is administered to the subject at a desired time point before the glucose is administered orally (to measure drug duration of action; OGTT DOA) and glucose blood levels are measured (e.g. readily done in mice). Activity and duration can also be measured using an intravenous glucose tolerance test (IVGTT) in which the drug is administered to the subject at a desired time point before the glucose is administered IV (IVGTT DOA) and blood glucose levels are measured (e.g. can readily be done in rats). Preferred engineered compounds have a desired effect on blood glucose of at least 24 hours duration after a single dose of drug, preferably at least 3 days, at least 4 days, at least 5 days, at least 6 days, and at least 1 week after the single dose of drug is given.
The effects on blood glucose prior to glucose gavage ([…]) and at 30 minutes post-glucose gavage were investigated 1 day post dose of peptide compound with varying amounts of Cmpd 15, with results shown in FIGS. 1A-1B. Bars represent mean±sd. Peptide was injected IP at t=−1 day. Glucose gavage (1.5 g/kg) given at t=0 to 4-hour fasted NIH/Swiss female mice. Blood glucose was measured with a OneTouch® Ultra® (LifeScan, Inc., a Johnson & Johnson Company, Milpitas, Calif.) * p<0.05 vs. vehicle control; ANOVA, Dunnett's test. This OGTT DOA indicates drug activity is present at least 24 hours after drug was administered. Exendin-4 (unconjugated) was ineffective in this assay when dosed at t-24 hours (1 day prior to the glucose assay), and even at higher doses.
The effects on blood glucose prior to gavage ([…]) and at 30 min were investigated 2 day post dose with varying amounts of Cmpd 15, with results shown in FIGS. 2A-2B. This OGTT DOA indicates drug activity is present at least 48 hours after drug was administered.
A comparison of the effects of Cmpds 15 and 8 on blood glucose was conducted, with results depicts in FIGS. 3A-3B. This OGTT DOA indicates drug activity is present at least 24 hours after drug was administered.
The effects of Cmpds 15, 8 and 10 on the change in blood glucose at 30 min (% pre-gavage) was investigated, as depicted in FIG. 7. In the figure, bars represent mean±s.d. Test compound was injected IP at t=−1 day. Glucose gavage (1.5 g/kg) given at t=0 to 4 hr fasted NIH/Swiss female mice. Blood glucose was measured as described herein. This OGTT DOA indicates drug activity is present at least 24 hours after drug was administered.
The effects of compounds disclosed herein on the change in blood glucose at 30 min (% pre-gavage) were investigated as described above. Test compound was injected IP at t=−1 day at 25 nmol/kg. Glucose gavage (1.5 g/kg) given at t=0 to 4 hr fasted NIH/Swiss female mice. Blood glucose was measured as described herein. This OGTT DOA indicates drug activity is present at least 24 hours after drug was administered. […] Exendin-4 (unconjugated) was ineffective in this assay when dosed at t-24 hours, and even at higher doses. […] Cmpd 22 with an albumin binding sequence the PAB protein from P. magnus had little if any […] (3%) in the above assay.

A further data set concerns diabetic ob/ob mice. The data set can be described thus: Chronic exposure in diabetic ob/ob mice (twice weekly, 28 days). In kind it is in vivo, mouse. On the procedure: The time course of the effect of the test compound on body weight, glucose lowering and HbA1c lowering in ob/ob mice was investigated post dose, with values at 4 weeks presented in FIGS. 11A, 11B, 11C and 11D. […] Points represent mean±s.d. (standard deviation). Each test compound was injected IP on day=0 immediately following baseline sample collection in non-fasted male ob/ob mice. The effects observed for the 25 nmol/kg biw (twice weekly) dose was greater than that observed for exendin-4 given at ˜7.2 nmol/kg/d by continuous infusion (CSI), a dose known to provide a maximal efficacy for exendin-4. […] Unless indicated otherwise, blood glucose measures described herein employed a OneTouch® Ultra® device (LifeScan, Inc. Miliptas, Calif.).

The subject of data set [3] is renal cortical tubular epithelial cells. Kind of data set: Kidney vacuolization histopathology. In kind it is in vivo, mouse. To be noted: C57BL6 female mice, sc injection days 0-6, sacrifice day 7. How it is done: With some drugs, such as some pegylated proteins, undesirable vacuoles can form in cytoplasm of epithelial cells lining the proximal convoluted tubules, which is an undesirable toxicity measure. […] C57BL6 female mice (n=2 cages, 3 mice/cage) were weighed daily 3 hours prior to lights out. Immediately after weighing, on days 0-6 mice were injected subcutaneously with test compound. Mice were sacrificed on day 7 and kidneys submitted for histopathology. […] A positive control compound known to cause vacuole formation was scored as 3. The ABD polypeptide itself scored 0. Cmpd 15 scored 0.

Data set [4] can be described thus: Pharmacokinetic profile after subcutaneous dosing in normal HSD rats. In kind it is in vivo, rat. To be noted: 25 nmol/kg single dose. How it is done:
Blood was collected via tail bleed at t=1 hour, 3 hours, 6 hours, 24 hours, 48 hours, 72 hours, 96 hours and 168 hours from fed HSD male rats. Food and body weights were measured daily. […] Points represent mean±sd.

The test system of the next data set is ob/ob mice. Kind of data set: Effect on body weight, glucose and HbA1c in ob/ob mice after single sc dose. The settings on record: non-fasted male ob/ob mice; Cmpd 15 at 250 nmol/kg sc on day 0. It counts as in vivo, mouse. On the procedure: The time course of the effect of Cmpd 15 on body weight, glucose and HbA1c in ob/ob mice was investigated post dose. […] Changes in glucose (% pre-treatment) and in HbA1c (% pre-treatment) are depicted in FIGS. 5B-5C. Points represent mean±s.d. (standard deviation). Cmpd 15 was injected sc on day=0 immediately following baseline sample collection in non-fasted male ob/ob mice. Unless indicated otherwise, blood glucose measures described herein employed a OneTouch® Ultra® device (LifeScan, Inc. Miliptas, Calif.).

A further data set concerns db/db mice. Kind of data set: Oral delivery (gavage) in diabetic db/db mice, blood glucose. The settings on record: PBS/propylene glycol (50:50).
Setting [5] is: 25 and 250 nmol/kg IP twice each week for 28 days.

As for `CC[C@H](C)[C@H](NC(=O)[C@H](Cc1ccccc1)NC(=O)[C@H](CCC(=O)O)NC(=O)[C@H](CCCCN)NC(=O)[C@H](C)NC(=O)[C@H](C)NC(=O)[C@H](CCC(N)=O)NC(=O)CNC(=O)[C@H](CCC(=O)O)NC(=O)[C@H](CC(C)C)NC(=O)[C@H](Cc1ccc(O)cc1)NC(=O)[C@H](CO)NC(=O)[C@H](CO)NC(=O)[C@@H](NC(=O)[C@H](CC(=O)O)NC(=O)[C@H](CO)NC(=O)[C@@H](NC(=O)[C@H](Cc1ccccc1)NC(=O)[C@@H](NC(=O)CNC(=O)[C@H](CCC(=O)O)NC(=O)[C@H](C)NC(=O)[C@@H](N)Cc1c[nH]cn1)[C@@H](C)O)[C@@H](C)O)C(C)C)C(=O)N[C@@H](C)C(=O)N[C@@H](Cc1c[nH]c2ccccc12)C(=O)N[C@@H](CC(C)C)C(=O)N[C@H](C(=O)N[C@@H](CCCCN)C(=O)NCC(=O)N[C@@H](CCCNC(=N)N)C(N)=O)C(C)C` [GLP-1(7-36) amide, reference compound], the “Percent Stable” value in data set [1] turned out to be 16%. In addition, the “Percent Stable in Human Plasma” value in data set [2] is given as 41.7%.
For “HGEGTFTSDLSKQLEEEAVRLFIEWLKQGGPSKEIISGGSLAEAKVLANRELDKYGVSDFYKRLINKAKTVEGVEALKLHILAALP [Cmpd 33]”, the “% Glucose Lowering Compared to Vehicle” value with NIH/Swiss female mice is given as −19%.
In the case of “HGEGTFTSDLSKQLEEEAVRLFIEWLKQGGPSKEIISTGGGGSASLAEAKVLANRELDKYGVSDFYKRLINKAKTVEGVEALKLHILAALP [Cmpd 15]”, in the data set with diabetic ob/ob mice (25 nmol/kg biw, comparable equimolar dose), the “effects compared to maximally efficacious dose of exendin-4 (7.2 nmol/kg/d CSI)” value was “exceeded the glycemic and body weight loss effects of the maximally efficacious dose of exendin-4”. For the same molecule, in the data set with diabetic ob/ob mice (250 nmol/kg biw), the “effects compared to maximally efficacious dose of exendin-4” value is recorded as “significantly greater”. In the data set on diabetic ob/ob mice (setting [5]), the “HbA1c lowering (% change from baseline)” value is “significant HbA1c lowering” and the “body weight loss (% change from baseline)” value is “significant body weight loss”. Further, the “HbA1c lowering and body weight loss compared to liraglutide” value in the data set with diabetic ob/ob mice (equimolar dosing to liraglutide, data not shown) was “more effective than liraglutide”. The “glucose lowering compared to liraglutide” value in the data set on diabetic ob/ob mice (equimolar dosing, twice weekly (BIW), chronic exposure) was “superior to liraglutide”. For the same molecule, in data set [3], the “Severity score for cytoplasmic vacuolation of renal cortical tubular epithelial cells” value was 0. In addition, the “Percent Stable in Human Plasma” value in data set [2] is 96.0%. In data set [4], the apparent half-life stood at 54 h. Further, the “effect on body weight” value in the data set with ob/ob mice is reported as “significant body weight loss”. Moreover, the “blood glucose lowering activity after oral dosing” value in the data set with db/db mice (240 nmol/kg peroral gavage, to 120 minutes, 2-hour fasted db/db mice) is given as “active when dosed orally”. For the same molecule, the oral bioavailability entry in the data set on db/db mice (peroral gavage, 1 mg/kg) is recorded as “orally bioavailable”. In the data set with NIH/Swiss female mice, the “% Glucose Lowering Compared to Vehicle” value is reported as −21%.
With “HGEGTFTSDLSKQLEEEAVRLFIEWLKQGGPSKEIISTGGGGSGGGSGGGSGGGSASLAEAKVLANRELDKYGVSDFYKRLINKAKTVEGVEALKLHILAALP [Cmpd 8]”, the “% Glucose Lowering Compared to Vehicle” value with NIH/Swiss female mice is −21%.
Regarding “HGEGTFTSDLSKQMEEEAVRLFIEWLKNGGSLAEAKVLANRELDKYGVSDFYKRLINKAKTVEGVEALKLHILAALP [Cmpd 32]”, in the data set on NIH/Swiss female mice (dosed IP at t=-1 day), the “glucose lowering activity when dosed 24 hours before the OGTT (in words)” value is on record as “no glucose lowering”.
With “HGEGTFTSDLSKQMEEEAVRLFIEWLKNTGGGGSASLAEAKVLANRELDKYGVSDFYKRLINKAKTVEGVEALKLHILAALP [Cmpd 10]”, in the data set with NIH/Swiss female mice, the “% Glucose Lowering Compared to Vehicle” value was −22%.
